Measured values reported in patent US6566081B1, “Methods of identifying a compound which modulates the non-transcriptional non-map-kinase induced effects of steroid hormones” (The Brigham and Women's Hospital, Inc., priority 1999, dated 2003).
Entries after “also recorded” stand apart in the source; their conditions may differ. Each block holds one molecule with its values, some of them ahead of it.

Key:
[1] = system: mouse cremaster muscle venules; assay: Model of vascular injury: ischemia and reperfusion in the mouse cremaster muscle (leukocyte rolling and adhesion); format: in vivo; conditions: wortmannin 100 nM or L-NAME 0.1 mM during ischemia
Method: (§1) Mice were anesthetized and the cremaster muscle was studied under intravital microscopy^28. Ischemia was induced by applying pressure to supplying arteries just sufficient to stop blood flow for 30 min. In some experiments, wortmannin (100 nM) or L-NAME (0.1 mM) was applied to the cremaster muscle during the ischemic period. The pressure was released for reperfusion, and the same vessels were recorded in each animal before and after I/R. The rolling velocities of 25 leukocytes were measured in each venule; sorted and averaged for each rank to construct cumulative histograms. The velocities of 3,750 leukocytes were measured in 150 venules before and after I/R. The number of firmly adherent leukocytes was measured before and after I/R in the same 200 μm long segments of venules.

eNOS [2] = target: T1, eNOS (Mus musculus, UniProt P70313); assay: Cremaster eNOS activity in mice; format: in vivo; conditions: L-NAME 0.1 mM, E2-treated mice
T1 construct: from tissue; host or cells: cremaster muscle of male C57BL/6 mice
Method: as §1, with “venules. The following number of venules were studies for leukocyte adhesion: Untreated, 15 venules; E2-treated, 20 venules; E2-treated with wortmannin, 25 venules; E2-treated with L-NAME, 15 venules. Cremaster eNOS activity was measured in 3 untreated, 4 E2-treated, 5 E2-treated with wortmannin, and 4 E2-treated with L-NAME mice.” for “venules.”

PI3-kinase = PI3-kinase assay on p85 immunoprecipitates of endothelial cell lysates; format: cell-based, human; conditions: E2 10 nM 20 min; ICI 10 μM, wortmannin 30 nM
Method: PI3kinase activity in endothelial cell lysates was assayed using the borate thin layer chromatography method, as described.^34 Following a 6 h incubation in serum- and estrogen-deficient medium 199, endothelial cells were treated according to the indicated conditions, washed, and harvested in ice-cold lysis buffer (137 mM NaCl, 20 mM Tris-HCl, pH 7.4, 1 mM CaCl2, 1 mM Mg Cl2, 0.1 mM Na3VO4, 1% NP-40). After pelleting the cell debris, the supernatant was incubated for 1 hour at 4° C. with 5 μL of a rabbit antiserum directed against the p85 regulatory subunit of the PI3-kinase (Upstate Biotechnology, Lake Placid, N.Y.), and immunoprecipitated with the addition of 50 μL of a 1:1 slurry of protein A-agarose for 1 hour at 4° C. Following centrifugation, the immunoprecipitates were washed three times with lysis buffer, three times with 0.1 M Tris-HCl, pH 7.4, 5 mM LiCl, 0.1 mM Na3VO4, followed by two washes with 10 mM Tris-HCl, pH 7.4, 150 mM NaCl, 5 mM EDTA, 0.1 mM Na3VO4.
The immunoprecipitates were then mixed with 50 μL Tris-HCl, pH 7.4, 150 mM NaCl, 5 mM EDTA, 20 μg of phosphatidylinositol (Sigma, Saint Louis, Mo.), 10 μL 100 mM MgCl2 and 5 μL of a 0.88 mM ATP, 20 mM MgCl2 solution, containing 30 μCi of [γ-^32P]ATP (3000 Ci/mmol; NEN Life Science Products, Boston, Mass.). […] The phospholipids were extracted with 160 μL of chloroform/methanol (1:1, v/v). 50 μL of the organic phase, containing the labeled PI3-kinase products were separated by borate thin layer chromatography on glass-backed Silica Gel 60 plates (EM Separations, Gibbstown, N.J.) pretreated with a solution containing 25 mM trans-1,2-diaminocyclohexane-N,N,N′N′-tetraacetic acid (CDTA, Sigma, Saint Louis, Mo.), 66% (v/v) ethanol and 0.06 N NaOH, dried for 1 hour and then baked at 100° C. for 15 minutes. The chromatography was developed with a solution containing 37.5% (v/v) methanol, 30% (v/v) chloroform, 22.5% (v/v) pyridine (Sigma, Saint Louis, Mo.), 1.33% (v/v) formic acid, […] boric acid and 8.5 mM butylated hydroxytoluene (Sigma, Saint Louis, Mo.), briefly dried and exposed to autoradiography.

ERK 1 and 2 = assay: Immunoblotting of ERK 1/2 phosphorylation; format: cell-based, human; conditions: E2 10 nM, PD 98059 5 μM
Method: After the different treatments, serum-starved endothelial cells were rinsed once with ice-cold PBS before addition of the lysis buffer (100 mM Tris-HCl, pH 6.8, 4% SDS, 20% glycerol, 1 mM sodium orthovanadate, 1 mM NaF, and 1 mM phenylmethylsulfonylfluoride) to the dishes on an ice tray. The cell lysates were scraped, boiled, and centrifuged for 2 min at 13000 rpm. Total cell lysates (40 μg of protein) and low range molecular weight markers (BIO-RAD, Hercules, Calif.) were separated by SDS-polyacrylamide gel electrophoresis (12% running, 4% stacking), electrophoretically transferred to polyvinylidene fluoride membranes (Immobilon P, 0.45 μm pore size) and incubated overnight at 4° C. with blocking solution (5% skim milk in TBS—0.1% Tween 20). Affinity-purified rabbit antibodies (0.4 μg of IgG/ml) vs. Akt, (Ser 473) phospho-Akt or (Thr 308) phospho-Akt (New England BioLabs, Beverly, Mass.), Erk1/2, (Tyr 204) phospho-Erk-1/-2 (Calbiochem, San Diego, Calif.) were incubated with the membranes overnight at 4° C. in TBS—0.1% Tween 20 containing 5% BSA. The blots were washed three times with TBS—0.1% Tween 20 and then treated with donkey anti-rabbit antibody (1:4000 dilution) coupled to horseradish peroxidase. Immunodetection was accomplished using the enhanced chemoluminescence kit (ECL Kit, Amersham Corp.).

ER-α / PI3-kinase p85α = target: T2, ER-α / PI3-kinase p85α (Homo sapiens, UniProt P03372); assay: ER-α immunoprecipitation: co-precipitated p85α and associated PI3-kinase activity; format: cell-based; conditions: ICI 10 μM, wortmannin, tamoxifen 1 μM, PD 98059 5 μM, actinomycin D 5 μM
T2 construct: endogenous in cells; host or cells: human endothelial cells (HSVEC), anti-ERα immunoprecipitate
T2 sequence (P03372 1-595): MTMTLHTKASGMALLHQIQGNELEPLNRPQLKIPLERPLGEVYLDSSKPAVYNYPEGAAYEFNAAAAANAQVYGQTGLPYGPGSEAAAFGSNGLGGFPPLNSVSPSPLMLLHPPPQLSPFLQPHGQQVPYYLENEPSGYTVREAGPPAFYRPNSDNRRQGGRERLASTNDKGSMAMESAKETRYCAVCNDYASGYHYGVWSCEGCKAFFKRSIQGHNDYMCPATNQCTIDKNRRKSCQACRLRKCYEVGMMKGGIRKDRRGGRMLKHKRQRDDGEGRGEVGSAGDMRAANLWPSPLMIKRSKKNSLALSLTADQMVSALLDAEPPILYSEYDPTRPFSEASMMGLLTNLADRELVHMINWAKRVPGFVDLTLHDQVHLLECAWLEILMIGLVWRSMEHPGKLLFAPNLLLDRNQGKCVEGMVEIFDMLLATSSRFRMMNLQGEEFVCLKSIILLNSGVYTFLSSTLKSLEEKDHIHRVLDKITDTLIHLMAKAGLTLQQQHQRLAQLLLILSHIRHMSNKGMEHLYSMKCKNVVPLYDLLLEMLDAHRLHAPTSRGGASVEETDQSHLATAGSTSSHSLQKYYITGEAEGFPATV

eNOS [3] = assay: eNOS activity assay (conversion of [3H]-arginine to [3H]-citrulline) in treated human endothelial cells; format: cell-based; conditions: E2 10 nM, wortmannin 30 nM, genistein 50 μM, PD98059 5 μM; for effect on E2-stimulated eNOS activity, later phase (≥15 min) or 30 min: ICI 10 μM, actinomycin D 2 h pretreatment
Method: Fetal bovine serum was deprived of estrogen by charcoal-stripping. Once grown to confluence the cells were replated on 1.5% gelatin-coated flasks at 20000 cells/cm^2. […] Cell number was assessed by direct cell counting of adherent cells, after trypsin detachment, in a Neubauer hemocytometer (VWR Scientifics). The percentage of cells excluding Trypan Blue after staining with the compound was taken as a measure of cell viability.
Endothelial cells were grown to confluence on 55 cm^2 culture dishes, treated according to the indicated conditions, and harvested in ice-cold PBS containing 1 mM EDTA. The cell lysates were pelleted in a microfuge (2 minutes, 13000 rpm, 4° C.) and subsequently homogenized in a buffer containing 25 mM Tris-HCl, pH 7.4, 1 mM EDTA, 1 mM EGTA. eNOS activity was determined by measuring the conversion of [^3H]-arginine to [^3H]-citrulline. Rat cerebellum extracts, containing elevated amounts of neuronal NOS, were used as positive controls, while endothelial cell extracts incubated in the presence of the competitive eNOS inhibitor L-NAME (1 mM) served as negative controls.
Human and bovine aortic endothelial cells were harvested enzymatically with Type IA collagenase (1 mg/mL).

ERα-p85α interaction = target: T3, ERα-p85α interaction (Homo sapiens, UniProt P03372); assay: GST fusion protein-affinity purification (GST-p85α and recombinant ERα, cell-free); format: binding; conditions: recombinant ERα, Hsp90 0.5 μg
T3 construct: purchased Panvera (ERα)
Method: Human recombinant GST-p85α fusion protein or GST (Sigma, St. Louis, Mo.) bound to glutathione-agarose beads (1 μg protein/20 μL beads) were suspended in 400 μL of E. Coli protein extract solution (10 mg/mL) and incubated with 1 μg human recombinant ERα (Panvera, Madison, Wis.) for 1 h at 4° C. The samples were pelleted, and the beads were washed 5 times with a buffer containing 50 mM potassium phosphate, pH 7.5, 150 mM KCl, 1 mM MgCl2, 10% (v/v) glycerol, 1% (v/v) Triton X-100 plus protease inhibitors. The beads were re-suspended in 50 μL of 2×Laemmli's buffer and boiled for 5 min. Proteins were separated on SDS-polyacrylamide gel electrophoresis.

T3 sequence (P27986 whole entry partner, one chain of several, the tested form may be a part): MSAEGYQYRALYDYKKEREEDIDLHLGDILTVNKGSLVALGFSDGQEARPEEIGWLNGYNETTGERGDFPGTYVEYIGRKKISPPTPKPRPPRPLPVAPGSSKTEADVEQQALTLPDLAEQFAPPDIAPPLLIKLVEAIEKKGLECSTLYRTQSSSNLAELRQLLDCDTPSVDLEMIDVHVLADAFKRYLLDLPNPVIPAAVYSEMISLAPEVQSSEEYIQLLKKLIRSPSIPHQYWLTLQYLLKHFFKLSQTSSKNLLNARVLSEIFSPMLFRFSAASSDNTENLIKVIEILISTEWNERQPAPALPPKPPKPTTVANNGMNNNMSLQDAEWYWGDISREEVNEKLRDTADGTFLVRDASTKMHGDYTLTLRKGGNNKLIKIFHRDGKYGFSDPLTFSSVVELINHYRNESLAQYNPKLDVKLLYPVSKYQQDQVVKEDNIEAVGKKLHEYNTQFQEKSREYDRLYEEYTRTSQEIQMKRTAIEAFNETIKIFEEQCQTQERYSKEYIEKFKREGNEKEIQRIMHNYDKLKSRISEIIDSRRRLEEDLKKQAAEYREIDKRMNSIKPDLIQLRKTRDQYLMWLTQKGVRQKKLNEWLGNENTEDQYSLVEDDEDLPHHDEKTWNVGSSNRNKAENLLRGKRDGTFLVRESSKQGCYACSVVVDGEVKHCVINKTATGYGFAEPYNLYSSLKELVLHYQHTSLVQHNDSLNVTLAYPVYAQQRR
T1 sequence (P70313 2-1202): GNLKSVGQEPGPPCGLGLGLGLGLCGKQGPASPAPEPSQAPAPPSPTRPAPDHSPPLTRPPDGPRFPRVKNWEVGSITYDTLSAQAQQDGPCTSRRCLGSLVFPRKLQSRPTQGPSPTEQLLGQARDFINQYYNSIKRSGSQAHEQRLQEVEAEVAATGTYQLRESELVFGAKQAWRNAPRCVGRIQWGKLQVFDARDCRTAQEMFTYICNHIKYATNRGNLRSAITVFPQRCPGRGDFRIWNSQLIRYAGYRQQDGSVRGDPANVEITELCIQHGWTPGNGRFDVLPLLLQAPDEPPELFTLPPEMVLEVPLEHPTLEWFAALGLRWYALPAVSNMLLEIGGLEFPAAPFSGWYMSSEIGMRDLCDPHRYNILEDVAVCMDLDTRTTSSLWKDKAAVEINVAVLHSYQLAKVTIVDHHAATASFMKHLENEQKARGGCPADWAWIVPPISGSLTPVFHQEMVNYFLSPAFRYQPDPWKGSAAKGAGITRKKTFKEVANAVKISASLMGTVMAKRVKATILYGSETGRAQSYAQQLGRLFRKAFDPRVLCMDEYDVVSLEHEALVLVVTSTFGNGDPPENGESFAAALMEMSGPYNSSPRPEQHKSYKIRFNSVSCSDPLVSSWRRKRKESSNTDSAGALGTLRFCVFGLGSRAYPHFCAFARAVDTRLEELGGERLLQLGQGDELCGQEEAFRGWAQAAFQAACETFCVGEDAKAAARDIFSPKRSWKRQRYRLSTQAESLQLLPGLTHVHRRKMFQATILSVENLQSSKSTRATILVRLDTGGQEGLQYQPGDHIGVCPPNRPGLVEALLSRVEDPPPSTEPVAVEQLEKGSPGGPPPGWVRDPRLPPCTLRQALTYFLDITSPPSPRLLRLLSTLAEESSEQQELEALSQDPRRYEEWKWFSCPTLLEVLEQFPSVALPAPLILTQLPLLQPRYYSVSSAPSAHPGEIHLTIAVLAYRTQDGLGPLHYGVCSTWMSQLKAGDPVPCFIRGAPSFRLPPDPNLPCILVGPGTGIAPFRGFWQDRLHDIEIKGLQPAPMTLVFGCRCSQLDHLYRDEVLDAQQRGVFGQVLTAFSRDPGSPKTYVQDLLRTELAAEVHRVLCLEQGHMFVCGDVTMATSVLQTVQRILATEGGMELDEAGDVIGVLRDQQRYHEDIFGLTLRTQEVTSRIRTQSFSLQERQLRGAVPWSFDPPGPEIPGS

Molecule: COC(=O)[C@@H](N)CCCNC(=N)N[N+](=O)[O-] [L-NAME, L-nitroarginine methylester]
leukocyte rolling velocity and accumulation, untreated vs E2-treated mice following I/R, with inhibitor applied to the cremaster muscle [1]: not different | effect of applied inhibitor on cremaster eNOS activity (eNOS [2]): decreased eNOS activity below that of untreated mice

effect on E2-stimulated ER-α-associated PI3-kinase activity (ER-α / PI3-kinase p85α): not
Molecule: COc1cccc(-c2cc(=O)c3ccccc3o2)c1N [PD98059]
effect on E2-induced PI3-kinase activation (PI3-kinase): only minimally affected | effect on E2-stimulated ERK-1 and -2 phosphorylation (ERK 1 and 2): inhibited | effect on E2-stimulated ERK-1 and -2 phosphorylation (ERK 1 and 2; listed as PD 98059): abolished | effect on E2-stimulated eNOS activity, later phase (≥15 min) or 30 min (eNOS [3]): only minimally affected; also recorded: not the later phase; also recorded: little or no inhibitory effect | effect on E2-stimulated eNOS activity, later phase (≥15 min) or 30 min (eNOS [3]; listed as PD 98059): do not block | effect on E2-stimulated eNOS activity, initial phase (first 5-10 min) (eNOS [3]): able to block; also recorded: significantly blocked | effect on E2-stimulated eNOS activity, initial phase (first 5-10 min) (eNOS [3]; listed as PD 98059): blunt

Molecule: Heat shock protein 90: heat shock protein that binds and facilitates the function of ER and eNOS
effect on interaction of ERα and p85α (ERα-p85α interaction): inhibited | effect on interaction of ERα and p85α (ERα-p85α interaction; listed as Hsp90): inhibits
